From patent US20240122180A1, “FUNGICIDAL HALOMETHYL KETONES AND HYDRATES AND THEIR MIXTURES” (FMC Corporation, priority 2020, published 2024) come the findings set out here.

Format in all cases: in vivo
Test [1] deals with Phakopsora pachyrhizi (the causal agent of Asian soybean rust). Briefly: Test F: Compound 32 or 64 alone and in mixtures on soybean seedlings, observed (Obsd) and Colby expected (Exp) disease control. As to conditions: for pest or weed control at 29.673 ppm: metominostrobin 29.673 ppm alone; for pest or weed control at 86.003 ppm: metominostrobin 86.003 ppm alone; for pest or weed control at 20.511 ppm: trifloxystrobin 20.511 ppm alone; for pest or weed control at 35.31 ppm: trifloxystrobin 35.310 ppm alone; for pest or weed control at 544.265 ppm: flutriafol 544.265 ppm alone; for pest or weed control at 1124.02 ppm: flutriafol 1124.021 ppm alone; for pest or weed control at 37.333 ppm: cyproconazole 37.333 ppm alone; for pest or weed control at 64.883 ppm: cyproconazole 64.883 ppm alone; for pest or weed control at 46.795 ppm: epoxiconazole 46.795 ppm alone; for pest or weed control at 89.631 ppm: epoxiconazole 89.631 ppm alone; for pest or weed control at 78.393 ppm: fenpropidin 78.393 ppm alone; for pest or weed control at 161.74 ppm: fenpropidin 161.740 ppm alone; for pest or weed control at 138.129 ppm: chlorothalonil 138.129 ppm alone; for pest or weed control at 222.081 ppm: chlorothalonil 222.081 ppm alone; for pest or weed control at 242.823 ppm: fenpropimorph 242.823 ppm alone; for pest or weed control at 458.587 ppm: fenpropimorph 458.587 ppm alone; for pest or weed control at 486.921 ppm: tebuconazole 486.921 ppm alone; for pest or weed control at 841.166 ppm: tebuconazole 841.166 ppm alone. From the text: The general protocol for preparing test compositions for Test F was as follows: Compound 32, Compound 64, azoxystrobin, benzovindiflupyr, bixafen, chlorothalonil, cyproconazole, epoxiconazole, fenpropidin, fenpropimorph, fluindapyr, flutriafol, fluxapyroxad, metominostrobin, picoxystrobin, prothioconazole, pydiflumetofen, pyraclostrobin, tebuconazole and trifloxystrobin were obtained as unformulated, technical-grade materials. Copper hydroxide and mancozeb was obtained as a formulated product marketed under the trademarks KOCIDE 3000 and MANZATE, respectively. Unformulated materials were first dissolved in acetone and then suspended at the desired concentration (in ppm) in acetone and purified water (50/50 mix by volume) containing 250 ppm of the surfactant Trem® 014 (polyhydric alcohol esters). Formulated materials were dispersed in sufficient water to give the desired concentration, and neither organic solvent nor surfactant was added to the suspension. The resulting test mixtures were then used in Test F. The tests were run on four individual plants and the results reported as the mean average of the four plants.
The presence of a synergistic effect between two active ingredients was established with the aid of the Colby equation (see Colby, S. R. “Calculating Synergistic and Antagonistic Responses of Herbicide Combinations”, Weeds, (1967), 15, 20-22):
Using the method of Colby, the presence of a synergistic interaction between two active ingredients is established by first calculating the predicted activity, p, of the mixture based on activities of the two components applied alone. If p is lower than the experimentally established effect, synergism has occurred. In the equation above, A is the fungicidal activity in percentage control of one component applied alone at rate x. The B term is the fungicidal activity in percentage control of the second component applied at rate y. The equation estimates p, the expected fungicidal activity of the mixture of A at rate x with B at rate y if their effects are strictly additive and no interaction has occurred.
The test mixture was sprayed to the point of run-off on soybean seedlings. The following day the seedlings were inoculated with a spore suspension of Phakopsora pachyrhizi (the causal agent of Asian soybean rust) and incubated in a saturated atmosphere at 22° C. for 24 h and then moved to a growth chamber at 22° C. for 8 days, after which time visual disease ratings were made.
Results for Test F are given in Tables B-1 through I-1 for Compound 32 and Tables B-2 through I-2 for Compound 64. Each table corresponds to a set of evaluations performed together at the same time. In each table, a rating of 100 indicates 100% disease control and a rating of 0 indicates no disease control (relative to the controls). Columns labeled “Obsd” indicate the average of results observed from test run on four individual plants. Columns labeled “Exp” indicate the expected value for each treatment mixture using the Colby equation.

The subject of test [2] is Puccinia recondita f. sp. tritici (the causal agent of wheat leaf rust). Put plainly: Test B: preventive spray on wheat seedlings, disease rating (100 = 100% control; * 50 ppm, ** 10 ppm, *** 250 ppm). As to conditions: 10 ppm test suspension; wheat seedlings; 100 = 100% disease control. In short, it runs like this:
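Wheat seedlings sprayed to run-off with compound in acetone/water (50/50) containing 250 ppm PEG400, inoculated next day with Puccinia recondita f. sp. tritici spores. Held 24 h saturated at 20° C, then 6 days at 20° C; disease control rated 0–100 relative to controls.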

In test [3] the test system is Phakopsora pachyrhizi (the causal agent of Asian soybean rust). Briefly: Test A: preventive spray on soybean seedlings, visual disease rating (100 = 100% control; * 50 ppm, ** 10 ppm, *** 250 ppm). As to conditions: 10 ppm test suspension; soybean seedlings; 100 = 100% disease control. In short, it runs like this: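 Soybean seedlings sprayed to run-off with compound suspended in acetone/water with 250 ppm PEG400 surfactant, inoculated next day with P. pachyrhizi spores. Kept 24 h saturated at 22 °C, then 8 days at 22 °C before visual rating of disease control (0-100) relative to controls.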

[4] abbreviates: Phakopsora pachyrhizi, Table H-1.
[5] abbreviates: Phakopsora pachyrhizi, Table H-2.
Where [6] appears, read: Phakopsora pachyrhizi, Table E-2.
The mark [7] stands for this setting: Phakopsora pachyrhizi, Table I-1.
The mark [8] stands for this setting: Phakopsora pachyrhizi, Table I-2.
Where [9] appears, read: Phakopsora pachyrhizi, Table F-1.
Setting [10] is: Phakopsora pachyrhizi, Table F-2.
The mark [11] stands for this setting: Phakopsora pachyrhizi, Table G-1.
The mark [12] stands for this setting: Phakopsora pachyrhizi, Table G-2.
The mark [13] stands for this setting: Phakopsora pachyrhizi, Table D-1.
The mark [14] stands for this setting: Phakopsora pachyrhizi, Table D-2.

Molecules are shown by their SMILES.

The term pest or weed control denotes the degree to which the test organism was suppressed or injured, in per cent.

Turning to `CNC(=O)/C(=N/OC)c1ccccc1Oc1ccccc1` [metominostrobin], in test [1] (setting [4]), the pest or weed control at 29.673 ppm stood at 13% and the pest or weed control at 86.003 ppm worked out at 37%. Also, in test [1] (setting [5]), the pest or weed control at 29.673 ppm was found to be 13% and the pest or weed control at 86.003 ppm was determined as 37%.

On to `CON=C(C(=O)OC)c1ccccc1CON=C(C)c1cccc(C(F)(F)F)c1` [trifloxystrobin], for which, in test [1] (setting [6]), the pest or weed control at 20.511 ppm is 69% and the pest or weed control at 35.31 ppm amounted to 86%. Besides, in test [1] (Table E-1), the pest or weed control at 20.511 ppm is 69% and the pest or weed control at 35.31 ppm worked out at 86%.

For the molecule `Cn1cc(C(=O)Nc2cccc3c2[C@@H]2CC[C@H]3C2=C(Cl)Cl)c(C(F)F)n1` (racemic) [benzovindiflupyr], the Obsd disease control in test [1] (benzovindiflupyr 0.606 ppm alone, Table G-1) was 67%; in test [1] (benzovindiflupyr 0.606 ppm alone, Table G-2), 67%; in test [1] (benzovindiflupyr 0.980 ppm alone, Table G-1), 67%; in test [1] (benzovindiflupyr 0.980 ppm alone, Table G-2), 67%.

As for `OC(Cn1cncn1)(c1ccc(F)cc1)c1ccccc1F` (stereo not drawn) [flutriafol], in test [1] (setting [7]), the pest or weed control at 544.265 ppm was 13% and the pest or weed control at 1124.02 ppm was 52%. Further, in test [1] (setting [8]), the pest or weed control at 544.265 ppm came to 13% and the pest or weed control at 1124.02 ppm was 52%.

In the case of `Cn1cc(C(=O)Nc2ccccc2-c2cc(F)c(F)c(F)c2)c(C(F)F)n1` [fluxapyroxad], the Obsd disease control worked out at 19% in test [1] (fluxapyroxad 2.757 ppm alone, Table C-1); 19% in test [1] (fluxapyroxad 2.757 ppm alone, Table C-2); 52% in test [1] (fluxapyroxad 4.748 ppm alone, Table C-1); 52% in test [1] (fluxapyroxad 4.748 ppm alone, Table C-2).

For `CO/C=C(/C(=O)OC)c1ccccc1Oc1cc(Oc2ccccc2C#N)ncn1` [azoxystrobin], the Obsd disease control came out at 70% in test [1] (azoxystrobin 95.873 ppm alone, Table E-1); 70% in test [1] (azoxystrobin 95.873 ppm alone, Table E-2); 88% in test [1] (azoxystrobin 169.226 ppm alone, Table E-1); 88% in test [1] (azoxystrobin 169.226 ppm alone, Table E-2).

As to `CC(C1CC1)C(O)(Cn1cncn1)c1ccc(Cl)cc1` (stereo not drawn) [cyproconazole], in test [1] (setting [6]), the pest or weed control at 37.333 ppm came to 44% and the pest or weed control at 64.883 ppm is 68%. In addition, in test [1] (Table E-1), the pest or weed control at 37.333 ppm was 44% and the pest or weed control at 64.883 ppm came to 68%.

With `Cn1cc(C(=O)Nc2ccc(F)cc2-c2ccc(Cl)c(Cl)c2)c(C(F)F)n1` [bixafen], the Obsd disease control was found to be 54% in test [1] (bixafen 11.327 ppm alone, Table C-1); 54% in test [1] (bixafen 11.327 ppm alone, Table C-2); 55% in test [1] (bixafen 19.525 ppm alone, Table C-1); 55% in test [1] (bixafen 19.525 ppm alone, Table C-2).

On to `CON(C(=O)c1cn(C)nc1C(F)F)C(C)Cc1c(Cl)cc(Cl)cc1Cl` (stereo not drawn) [pydiflumetofen], for which the Obsd disease control in test [1] (pydiflumetofen 41.364 ppm alone, Table H-1) stood at 49%; in test [1] (pydiflumetofen 41.364 ppm alone, Table H-2), 49%; in test [1] (pydiflumetofen 70.950 ppm alone, Table F-1), 0%; in test [1] (pydiflumetofen 70.950 ppm alone, Table F-2) it was 0%; in test [1] (pydiflumetofen 128.793 ppm alone, Table H-1) it was 36%; in test [1] (pydiflumetofen 128.793 ppm alone, Table H-2), 36%. The Obsd disease control amounted to 73% in test [1] (pydiflumetofen 135.850 ppm alone, Table F-1) and 73% in test [1] (pydiflumetofen 135.850 ppm alone, Table F-2).

For the molecule `Fc1ccc([C@]2(Cn3cncn3)O[C@H]2c2ccccc2Cl)cc1` (racemic) [epoxiconazole], in test [1] (setting [9]), the pest or weed control at 46.795 ppm is 23% and the pest or weed control at 89.631 ppm was 70%. In test [1] (setting [10]), the pest or weed control at 46.795 ppm is 23% and the pest or weed control at 89.631 ppm is 70%.

Regarding `CC(Cc1ccc(C(C)(C)C)cc1)CN1CCCCC1` (stereo not drawn) [fenpropidin], the pest or weed control at 78.393 ppm in test [1] (setting [7]) and in test [1] (setting [8]) was 45% throughout. Moreover, the pest or weed control at 161.74 ppm in test [1] (setting [7]) and in test [1] (setting [8]) was 68% throughout.

With `N#Cc1c(Cl)c(Cl)c(Cl)c(C#N)c1Cl` [chlorothalonil], in test [1] (setting [11]), the pest or weed control at 138.129 ppm worked out at 59% and the pest or weed control at 222.081 ppm worked out at 85%. Moreover, in test [1] (setting [12]), the pest or weed control at 138.129 ppm was determined as 59% and the pest or weed control at 222.081 ppm is 85%.

`CC(Cc1ccc(C(C)(C)C)cc1)CN1C[C@@H](C)O[C@@H](C)C1` (stereo partly drawn) [fenpropimorph]: in test [1] (setting [13]), the pest or weed control at 242.823 ppm worked out at 33% and the pest or weed control at 458.587 ppm worked out at 44%. In test [1] (setting [14]), the pest or weed control at 242.823 ppm stood at 33% and the pest or weed control at 458.587 ppm turned out to be 44%.

With `CO/C=C(/C(=O)OC)c1ccccc1COc1cccc(C(F)(F)F)n1` [picoxystrobin], the Obsd disease control in test [1] (picoxystrobin 20.596 ppm alone, Table B-1) is recorded as 73%; in test [1] (picoxystrobin 20.596 ppm alone, Table B-2) it was 73%; in test [1] (picoxystrobin 33.865 ppm alone, Table B-1) it was 75%; in test [1] (picoxystrobin 33.865 ppm alone, Table B-2), 75%.

`CC(C)(C)C(O)(CCc1ccc(Cl)cc1)Cn1cncn1` (stereo not drawn) [tebuconazole]: the pest or weed control at 486.921 ppm in test [1] (setting [13]) and in test [1] (setting [14]) was 30% in each case. For the same molecule, the pest or weed control at 841.166 ppm in test [1] (setting [13]) and in test [1] (setting [14]) was 55% in each case.

Take `CC1CC(C)(C)c2c(F)ccc(NC(=O)c3cn(C)nc3C(F)F)c21` (stereo not drawn) [fluindapyr]: the Obsd disease control in test [1] (fluindapyr 8.820 ppm alone, Table C-1) is 61%; in test [1] (fluindapyr 8.820 ppm alone, Table C-2), 61%; in test [1] (fluindapyr 15.230 ppm alone, Table C-1) it was 79%; in test [1] (fluindapyr 15.230 ppm alone, Table C-2) it was 79%.

Consider `FC(F)(F)C1(COc2ccc(OCC3(C(F)(F)F)OCCO3)cc2)OCCO1` [compound 28], for which the “Test B disease control rating” value in test [2] is 0%. For the same molecule, the “Test A disease control rating” value in test [3] turned out to be 0%.

In the case of `C=CC(F)(F)OC(=O)c1cnn(Cc2ccc(OCC(O)(O)C(F)(F)F)cc2)c1` [compound 38], the “Test B disease control rating” value in test [2] worked out at 89%. In addition, the “Test A disease control rating” value in test [3] is recorded as 97%.
